Results on three molecules are retold here after patent EP0449649A2, “Antineoplastic quinones and methods of using same” (priority 1990, dated 1991).

The subject of test [1] is 110-fold doxorubicin-resistant ovarian cancer (2780/DOX). The test is described as follows: in vitro screen against doxorubicin-resistant ovarian cancer. Type of test: cell-based. The settings on record: read-out: IC₅₀. The source says: (§1) (see: Salmon, S.E. et al, Cancer Treat Rep., 1981, 65, 102; Salmon, S.E. et al, N. Engl. J. Med., 1978, 298, 1231;and Albert, DS, Cancer Chemother Pharmacol, 1981, 6, 253). The protocol employed for MTT assays are reported. (see: Mossman T.J. Immunol Methods, 1983, 65, 55).
(§2) 6-(N-Aziridinyl)-7-methyl-2, 3-dihydro - 1H- pyrrolo [1, 2-a] benzimidazole-5, 8-dione-3-acetate (1c) was screened for in vitro activity against doxorubicin-sensitive ovarian cancer (2780/S) and 110-fold doxorubicin-resistant ovarian cancer (2780/DOX).
(§3) 6-(N-Aziridinyl)-7-methyl-2, 3-dihydro - 1H- pyrrolo [1, 2-ª] benzimidazole-5, 8-dione-3-carbamate (1d) was screened for in vitro activity against doxorubicin-sensitive (2780/S) and doxorubicin-resistant (2780/DOX) ovarian cancer.

The test system of test [2] is doxorubicin-sensitive ovarian cancer (2780/S). The test is described as follows: in vitro screen against doxorubicin-sensitive ovarian cancer. It counts as cell-based. The settings on record: read-out: IC₅₀.
Source text: as §1, §2, §3

Test [3] relates to cisplatin-sensitive (2008/S) ovarian cancers. The test is described as follows: in vitro screen against cisplatin-sensitive ovarian cancer. Type of test: cell-based. The note with it: for IC₅₀: in vitro.
Source text: as §1
(§4) 6-(N-Aziridinyl)-7-methyl-2, 3-dihydro - 1H- pyrrolo [1, 2-ª] benzimidazole-5, 8-dione-3-acetate (1c) was screened for in vitro activities against cisplatin-sensitive (2008/S) and cisplatin-resistant (2008/R) ovarian cancers.
(§5) 6-(N-Aziridinyl)-7-methyl-2, 3-dihydro - 1H- pyrrolo [1, 2-a] benzimidazole-5, 8-dione-3-carbamate (1d) was screened for in vitro activity against cisplatin-sensitive (2008/S) and cisplatin-resistant (2008/R) ovarian cancers.

Test [4] concerns cisplatin-resistant (2008/R) ovarian cancers. Put plainly: in vitro screen against cisplatin-resistant ovarian cancer. Type of test: cell-based. The settings on record: for IC₅₀: in vitro.
Source text: as §1, §4, §5

The subject of the next test is WiDr human colon cancer. The test is described as follows: in vitro screen against WiDr colon cancer. Type of test: cell-based. The note with it: read-out: IC₅₀.
Source text: as §1
6-(N-Aziridinyl)-7-methyl-2, 3-dihydro - 1H- pyrrolo [1, 2-ª] benzimidazole-5, 8-dione-3-acetate (1c) was screened for in vitro activity against WiDr human colon cancer.
6-(N-Aziridinyl)-7-methyl-2, 3-dihydro - 1H- pyrrolo [1, 2-ª] benzimidazole-5, 8-dione-3-carbamate (1d) was screened for in vitro activity against WiDr/S human colon cancer.

The test system of a further test is SW480 human colon cancer. Put plainly: in vitro screen against SW480 colon cancer. It counts as cell-based.
Source text: as §1
6-(N-Aziridinyl)-7-methyl-2, 3-dihydro - 1H- pyrrolo [1, 2-ª] benzimidazole-5, 8-dione-3-acetate (1c) was screened for in vitro activity against SW480 human colon cancer.
6-(N-Aziridinyl)-7-methyl-2, 3-dihydro - 1H- pyrrolo [1, 2-ª] benzimidazole-5, 8-dione-3-carbamate (1d) was screened for in vitro activity against SW480 human colon cancer.

The subject of another test is 8226/S human myeloma. The test is described as follows: in vitro screen against 8226/S myeloma. The settings on record: read-out: IC₅₀. Type of test: cell-based.
Source text: as §1
6-(N-Aziridinyl)-7-methyl-2, 3-dihydro - 1H- pyrrolo [1, 2-ª] benzimidazole-5, 8-dione-3-acetate (1c) was screened for in vitro activity against 8226/S human myeloma.
6-(N-Aziridinyl)-7-methyl-2, 3-dihydro - 1H- pyrrolo [1, 2-ª] benzimidazole-5, 8-dione-3-carbamate (1d) was screened for in vitro activity against 8226/S myeloma.

For another test, the system named is Fresh ovarian tumors. Put plainly: clonogenic assay on fresh ovarian tumors from patients. Type of test: cell-based, human. On the procedure: as §1
Fresh ovarian tumors were collected from twelve (12) confirmed ovarian cancer patients. Azimitosene 1c was tested in vitro using the clonogenic assay described by Salmon et al, Salmon et al, and Albert et al (op cit). The IC₅₀ data (the drug concentration required to obtain 50% inhibition of tumor colony formation after 1 hour exposure to test compound) obtained from these assays are shown in Table 1.

Values after ≈ are worked out from the molar mass of the structure shown. Like-named read-outs stand apart in the source and are kept apart here.

Consider `CC1=C(N2CC2)C(=O)c2nc3n(c2C1=O)CCC3OC(N)=O` (stereo not drawn) [1d, 6-N-Aziridinyl-7-methyl-2,3-dihydro-1H-pyrrolo [1,2-a]benzimidazole-5,8-dione-3-Carbamate], for which the IC50 in test [1] turned out to be 200 nM; in test [2], 100 nM; in the test with WiDr human colon cancer (WiDr), 100 nM; in the test with SW480 human colon cancer (SW480, read-out: IC₅₀) it was 19 nM; in the test with 8226/S human myeloma, 140 nM. The IC₅₀ entry in test [3] and in test [4] was “not attainable” each time.
`CO[C@@]12[C@H](COC(N)=O)C3=C(C(=O)C(C)=C(N)C3=O)N1C[C@@H]1N[C@@H]12` [MMC, mitomycin C, reference compound]: the IC50 in test [1] (2780/DOX, in vitro) is 200 nM; in test [2] (2780/S, in vitro), 100 nM; in the test on WiDr human colon cancer (WiDr (WiDr/S), in vitro), 20 nM; in the test with SW480 human colon cancer (SW480, in vitro, read-out: IC₅₀), 7 nM; in the test on 8226/S human myeloma (8226/S, in vitro) it was 200 nM. In addition, the IC₅₀ result in test [3] and in test [4] was “not attainable” throughout.
In the case of `CC(=O)OC1CCn2c1nc1c2C(=O)C(C)=C(N2CC2)C1=O` (stereo not drawn) [1c, 6-(N-aziridinyl)-7-methyl-2,3-dihydro-1H-pyrrolo [1,2-a]benzimidazole-5,8-dione-3-Acetate], the IC50 in test [1] turned out to be 16 nM; in test [2], 0.6 nM; in test [3] (Homo sapiens, read-out: IC₅₀) it was 7 nM; in test [4] (Homo sapiens, read-out: IC₅₀), 7 nM; with WiDr human colon cancer (WiDr), 6 nM; with SW480 human colon cancer (SW480, read-out: IC₅₀) it was 9 nM. Also, the IC50 is 100 nM in the test with 8226/S human myeloma; “unachievable” in the test with Fresh ovarian tumors (50% inhibition of tumor colony formation after 1 hour exposure, each value is the tumor of one patient (Patient No. 1-12)); 0.05 µg/mL (≈ 0.166 µM) in the test with Fresh ovarian tumors (Homo sapiens, median over the fresh ovarian tumors of Table 1, read-out: median IC₅₀). Further, in the test on Fresh ovarian tumors (share of the 12 fresh ovarian tumors of Table 1), the “ovarian cancers that respond” value came out at 91%.
